Test results as given in PMC10057977, “Use of In Vivo Imaging and Physiologically-Based Kinetic Modelling to Predict Hepatic Transporter Mediated Drug–Drug Interactions in Rats” (Pharmaceutics, 2023).

Assay: Gadoxetate PBPK model transport parameters
Design: species or system rat
Source text: A previously developed reduced PBPK model of gadoxetate was used in the current study. The PBPK model (Figure 1) is composed of seven compartments: blood, spleen, splanchnic organs, liver interstitial space, hepatocytes, rest of the body (ROB) vascular, and extravascular space. In the ROB compartment, muscles, fat, bones, and skin, among others, are represented.
A permeability-limited liver model was applied to describe the gadoxetate active uptake into the hepatocytes, as per Equation (1). (1) Vliv,extrdcliv,extr/dt=inputsplan+inputart−Qhcliv,extr/Kliv, extr−b−CLuptake· cliv,extr−CLpassive(cliv,extr−fu,liv, cell cliv,cell)Vliv,celldcliv,cell/dt=CLuptake cliv,extr+CLpassive(cliv,extr−fu,liv, cell cliv,cell)−CLbiliary fu,liv,cell cliv,cell […]
cliv,extr , cliv,cell [μmol/L] and Vliv,extr , Vliv,int [L] are the gadoxetate concentrations ( c ) and volumes ( V ) of the liver extracellular space and hepatocytes, respectively. […] Details of the model development, relations between concentrations in PBPK compartments and measured ΔR1 , parameters identification, and performance were described previously. […]

## CCOc1ccc(C[C@@H](CN(CCN(CC(=O)[O-])CC(=O)[O-])CC(=O)[O-])N(CC(=O)[O-])CC(=O)[O-])cc1.[Gd+3].[H+].[H+] [gadoxetate, Gadoxetate]
Total concentration in hepatocytes
  CLbiliary, new value in unified units: 0.756 mL/min
Total concentration in the liver interstitial fluid
  CLuptake, new value in unified units: 36.2 mL/min
